From publication PMC3542985 (The Journal of neuroscience : the official journal of the …, 2013)
Values joined by “and” are separate entries in the source; they are usually repeats but may differ in a detail not shown here. Equal entries are not always repeated. Where two headings read alike, the source gives them in different places.

Tests used:
[1] = target: T1, Torpedo nAChR (Tetronarce californica, UniProt P02710+P02712+P02714+P02718); assay: biochemical; format: binding
[2] = target: T1, Torpedo nAChR; format: binding
[3] = target: T2, Na^+/K^+-ATPase α subunit (Tetronarce californica, UniProt P05025); format: binding, Torpedo californica
T2 sequence (P05029 whole entry, other chains not shown): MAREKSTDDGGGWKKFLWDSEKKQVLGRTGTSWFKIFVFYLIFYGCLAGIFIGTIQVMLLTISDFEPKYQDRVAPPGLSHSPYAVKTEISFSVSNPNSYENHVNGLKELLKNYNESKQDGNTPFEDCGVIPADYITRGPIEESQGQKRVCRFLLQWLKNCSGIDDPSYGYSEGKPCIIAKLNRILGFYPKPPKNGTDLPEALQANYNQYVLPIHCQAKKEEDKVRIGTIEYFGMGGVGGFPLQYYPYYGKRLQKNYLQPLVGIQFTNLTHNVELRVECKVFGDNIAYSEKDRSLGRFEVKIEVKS

[4] = target: T2, Na^+/K^+-ATPase α subunit; format: binding, Torpedo californica; remark: listed apart in the source
[5] = target: T1, Torpedo nAChR; assay: equilibrium binding of the ion channel blocker [^3H]PCP
[6] = target: T1, Torpedo nAChR; assay: equilibrium binding of the ion channel blocker [^3H]tetracaine
[7] = target: T1, Torpedo nAChR; assay: equilibrium binding of [^3H]ACh; conditions: IC50, inhibition of [^3H]ACh binding
[8] = Resting vs. Desensitized, −Carb (no other drugs)

T1 sequence (P02718 22-522): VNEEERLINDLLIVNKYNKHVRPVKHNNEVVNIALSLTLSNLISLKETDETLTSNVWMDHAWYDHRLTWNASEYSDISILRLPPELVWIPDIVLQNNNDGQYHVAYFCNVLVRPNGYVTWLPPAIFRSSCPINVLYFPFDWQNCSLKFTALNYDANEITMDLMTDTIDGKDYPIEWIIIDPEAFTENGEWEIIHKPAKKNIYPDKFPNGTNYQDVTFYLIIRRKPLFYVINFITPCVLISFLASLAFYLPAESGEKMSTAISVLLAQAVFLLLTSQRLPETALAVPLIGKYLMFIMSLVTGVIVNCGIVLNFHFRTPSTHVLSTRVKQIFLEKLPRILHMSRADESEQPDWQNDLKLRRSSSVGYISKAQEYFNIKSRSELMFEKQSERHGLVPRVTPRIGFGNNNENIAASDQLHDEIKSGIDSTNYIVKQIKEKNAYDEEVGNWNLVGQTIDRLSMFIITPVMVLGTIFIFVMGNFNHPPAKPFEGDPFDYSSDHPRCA
T1 sequence (P02714 18-506): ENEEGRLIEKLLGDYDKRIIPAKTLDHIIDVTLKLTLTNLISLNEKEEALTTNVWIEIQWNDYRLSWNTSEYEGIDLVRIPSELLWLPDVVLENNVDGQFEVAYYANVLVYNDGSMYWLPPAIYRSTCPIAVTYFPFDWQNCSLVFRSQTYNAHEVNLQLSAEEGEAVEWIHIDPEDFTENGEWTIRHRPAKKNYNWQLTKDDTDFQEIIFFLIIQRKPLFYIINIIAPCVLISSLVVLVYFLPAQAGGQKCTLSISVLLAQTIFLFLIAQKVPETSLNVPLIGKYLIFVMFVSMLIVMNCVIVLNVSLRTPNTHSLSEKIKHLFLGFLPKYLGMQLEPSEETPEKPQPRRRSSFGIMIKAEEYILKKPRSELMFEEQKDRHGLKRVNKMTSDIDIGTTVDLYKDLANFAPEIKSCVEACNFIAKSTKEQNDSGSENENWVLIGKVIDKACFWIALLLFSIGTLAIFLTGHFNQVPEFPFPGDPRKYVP
T1 sequence (P02712 25-493): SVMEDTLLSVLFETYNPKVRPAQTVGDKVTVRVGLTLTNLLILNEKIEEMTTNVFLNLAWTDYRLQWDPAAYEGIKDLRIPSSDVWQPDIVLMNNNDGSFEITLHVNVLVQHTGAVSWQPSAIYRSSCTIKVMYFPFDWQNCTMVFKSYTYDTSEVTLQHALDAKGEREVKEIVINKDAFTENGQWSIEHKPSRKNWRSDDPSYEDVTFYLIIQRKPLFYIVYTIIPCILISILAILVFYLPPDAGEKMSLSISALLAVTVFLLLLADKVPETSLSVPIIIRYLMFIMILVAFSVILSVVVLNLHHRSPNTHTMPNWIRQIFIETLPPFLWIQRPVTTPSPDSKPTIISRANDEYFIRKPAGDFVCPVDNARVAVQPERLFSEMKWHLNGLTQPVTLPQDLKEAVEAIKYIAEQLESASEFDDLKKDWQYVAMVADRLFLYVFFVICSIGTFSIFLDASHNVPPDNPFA
T1 sequence (P02710 25-461): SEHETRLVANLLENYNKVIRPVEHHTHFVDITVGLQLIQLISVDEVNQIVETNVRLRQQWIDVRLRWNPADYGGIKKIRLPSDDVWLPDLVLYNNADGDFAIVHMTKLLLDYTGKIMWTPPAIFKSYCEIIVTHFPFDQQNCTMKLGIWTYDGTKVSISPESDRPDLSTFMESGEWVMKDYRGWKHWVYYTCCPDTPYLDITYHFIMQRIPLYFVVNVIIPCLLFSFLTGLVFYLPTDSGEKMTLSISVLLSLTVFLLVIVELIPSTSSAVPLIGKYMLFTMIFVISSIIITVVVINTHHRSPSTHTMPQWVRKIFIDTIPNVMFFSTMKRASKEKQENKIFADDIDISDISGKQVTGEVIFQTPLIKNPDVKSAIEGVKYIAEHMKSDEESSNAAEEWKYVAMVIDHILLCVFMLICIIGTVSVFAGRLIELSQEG

C[N+](C)(C)CCOC(N)=O.[Cl-] [Carb, carbamylcholine]
alteration of [^3H]physostigmine photoincorporation in nAChR β subunit [1]: < 5%
change of efficiency of [^3H]physostigmine photolabeling at δTyr-439 [1]: < 20%
effect on [^3H]physostigmine photolabeling of γTyr-105 [1]: enhanced
effect on efficiency of [^3H]physostigmine photolabeling of δTyr-212 [1]: doubled
increase of [^3H]physostigmine photolabeling of nAChR δ subunit [1]: ~ 10%
inhibition of [^3H]physostigmine photolabeling of αTyr-93 [1]: > 90%
inhibition of [^3H]physostigmine photolabeling of αTyr-190, αCys-192 and αTyr-198 [1]: > 85%
inhibition of [^3H]physostigmine photolabeling of αV8-20 fragment [1]: > 75%
inhibition of [^3H]physostigmine photolabeling of γTyr-111 and γTyr-117 [1]: 50–60%
reduction of [^3H]physostigmine photoincorporation into nAChR α subunit [1]: 40%
reduction of [^3H]physostigmine photoincorporation into nAChR γ subunit [1]: 10%
inhibition of [^3H]galanthamine photolabeling in the α subunit [2]: 80%
inhibition of [^3H]galanthamine photolabeling of αTyr-190 and αTyr-198 [2]: > 95%
reduction of [^3H]galanthamine photolabeling in β subunit [2]: < 5%
reduction of [^3H]galanthamine photolabeling in γ and δ subunits [2]: ~ 25%
alteration of [^3H]physostigmine photoincorporation in Na^+/K^+-ATPase α subunit [3]: < 5%

COc1ccc2c3c1O[C@H]1C[C@@H](O)C=C[C@@]31CCN(C)C2 [galanthamine]
change of efficiency of [^3H]physostigmine photolabeling at δTyr-439 [1]: < 20%
reduction of [^3H]physostigmine photoincorporation into the nAChR subunits [1]: to the same extent as 100 μM physostigmine
inhibition at 300 µM ([1]; read-out: inhibition of [^3H]physostigmine photolabeling of γTyr-105, γTyr-111 and γTyr-117): ~75%
inhibition at 300 µM ([1]; read-out: inhibition of [^3H]physostigmine photolabeling of δTyr-212): ~50%
reduction of [^3H]galanthamine photolabeling of Na^+/K^+-ATPase α subunit [4]: < 5%
inhibition at 3000 µM ([5]; read-out: inhibition of [^3H]PCP binding): 20%
reduction of [^3H]galanthamine photolabeling of each nAChR subunit [2]: ~ 25%
inhibition at 3000 µM ([6]; read-out: inhibition of [^3H]tetracaine binding): 10%
IC50 [7]: 3000 µM and 2800 µM

CNC(=O)Oc1ccc2c(c1)[C@]1(C)CCN(C)[C@@H]1N2C [physostigmine]
decrease of [^3H]physostigmine photolabeling in the nAChR subunits [1]: 25–40%
IC50 ([5]; IC50, inhibition of [^3H]PCP binding): 1000 µM and 900 µM
decrease of [^3H]physostigmine photolabeling in Na^+/K^+-ATPase α subunit [3]: < 5%
IC50 [6]: 5000 µM
IC50 [7]: > 10000 µM

[^3H]physostigmine
efficiency of photolabeling at δTyr-439 [1]: 1 cpm/pmol
photolabeling, if it occurred, of αLys-125 [1]: less than 0.2 cpm/pmol
photolabeling, if it occurred, of αTyr-127 [1]: < 0.05 cpm/pmol
photolabeling of δTyr-172 ([1]; +Carb 1 mM): 4.9 cpm/pmol
photolabeling of δTyr-172 ([1]; +αBgTx 8 μM): 1.6 cpm/pmol
photolabeling of δTyr-172 ([1]; Carb-independent): 4 cpm/pmol
photoincorporation into αY190 (Site IV, core aromatics) [1, 8]: 10 cpm/pmol
photoincorporation into αY198 (Site IV, core aromatics) [1, 8]: 20 cpm/pmol
photoincorporation into γY111 (Site I) [1, 8]: 9 cpm/pmol
photoincorporation into γY117 (Site I) [1, 8]: 2 cpm/pmol
photolabeling of αCys-192 ([1]; absence of other drugs): 10 cpm/pmol
photolabeling of δTrp-57 ([1]; data not shown): 0.8 cpm/pmol
photolabeling, if it occurred, of adjacent aromatic amino acids (δTrp-64, δTyr-65) ([1]; data not shown): < 0.2 cpm/pmol
photolabeling of δTyr-172 ([1]; −Carb): 3.4 cpm/pmol
photolabeling of δTyr-172 ([1]; −αBgTx): 5 cpm/pmol

α-bungarotoxin [α-BgTx]
alteration of [^3H]physostigmine photoincorporation in nAChR β subunit [1]: < 5%
change of efficiency of [^3H]physostigmine photolabeling at δTyr-439 [1]: < 20%
decrease of [^3H]physostigmine photolabeling of nAChR δ subunit [1]: ~ 10%
effect on [^3H]physostigmine photolabeling of γTyr-105 [1]: unchanged
inhibition of [^3H]physostigmine photolabeling of αTyr-190, αCys-192 and αTyr-198 [1]: > 85%
inhibition of [^3H]physostigmine photolabeling of αV8-20 fragment [1]: > 75%
inhibition of [^3H]physostigmine photolabeling of γTyr-111 and γTyr-117 [1]: 50–60%
reduction of [^3H]physostigmine photoincorporation into nAChR α subunit [1]: 40%
reduction of [^3H]physostigmine photoincorporation into nAChR γ subunit [1]: 20%
reduction of [^3H]physostigmine photolabeling of δTyr-172 [1]: 70%
reduction of efficiency of [^3H]physostigmine photolabeling of δTyr-212 [1]: ~ 25%
alteration of [^3H]physostigmine photoincorporation in Na^+/K^+-ATPase α subunit [3]: < 5%
